Columns and labels:
[1] = Porcine scleral permeability (modified Ussing chamber); type: in vitro ADME; conditions: pig, pH 7.4, porcine excised eye tissue, 10 μg/mL compound on donor side
Procedure: Scleral permeability was measured using a modified Ussing chamber assembly in the initial eye drop formulation containing 1% hydroxypropyl methyl cellulose, 0.2% tyloxapol, 3.4% dextrose, 0.006% benzalkonium chloride, and 0.025% ethylenediaminetetraacetic acid with 1% DMSO in PBS (pH 7.4). Porcine excised eye tissues were mounted in the chambers such that the episcleral side faced the donor chamber and the retinal side faced the receiver chamber. The chambers were filled with equal volumes of eye drop formulation, with (donor side) or without (receiver side) 10 μg/mL compound. After 24 hours tissue was removed from the chamber and the receiver side (“vitreous”) sampled. Tissue was dissected into sclera, choroid/RPE, and retina and homogenised. A tracer (SPHINX7; WO 2015/159103) was added, and tissue extracted by acetonitrile extraction as described in Batson et al (2017). Compounds were then analysed by mass spectrometry as described in Batson et al (2017).
To determine whether compounds could get across the sclera of a larger animal, porcine sclera was clamped between two chambers and compounds were added to the sclera with eye drop formulation added to the bottom chamber and compounds added to the top chamber. After 24 hours, the fluid from the bottom chamber (vitreous) and the retinal tissue was isolated and compounds purified by methanol or acetonitrile extraction and HPLC.

VEGF-A165a isoform = test: VEGF isoform specific ELISA in retinal pigmented epithelial cells; type: cell-based, human; conditions: FIG. 5
Procedure: 96-well clear microplate (high sensitivity thermo immulon or costar 9018) were coated with 100 μL of 10 μg/mL VEGFxxxb or 0.25 μg/mL anti-hVEGF165a per well. The plate was sealed with parafilm and incubated overnight on the shaker at room temp. Each well was aspirated and washed with Wash Buffer (200 μL PBS-Tween 0.05%), […] for a total of three washes. After the last wash, remaining Wash Buffer was removed by inverting the plate and blotting it against clean paper towels. Plates were blocked by adding 100 μL of Reagent Diluent (1% BSA/PBS) to each well and incubated at room temp on a shaker for 2 hours. The aspiration/wash step was repeated. 100 μL of standards or samples in 1% BSA/PBS were added to each well, covered with parafilm and incubated 2 hours at room temperature. The aspiration/wash was repeated and 100 μL of 100 ng/mL of Detection Antibody (BAF293), diluted in Reagent Diluent, was added to each well which were covered with parafilm and incubated 2 hours at room temperature. The aspiration/wash was repeated and 100 μL of the working dilution of Streptavidin-HRP (1:200 dilution) was added to each well. […] The optical density of each well was measured immediately, using a microplate reader set to 450 nm.
To determine whether compound 1 could switch splicing of VEGF isoforms, VEGF was measured in retinal pigmented epithelial cells by isoform specific ELISA.

VEGF-A165b and panVEGF = test: STZ model of diabetes, retinal VEGF immunoblotting; type: in vivo, Norway Brown rats; conditions: diabetic rats, bidaily eye drops for 28 days, Western blot
Procedure: To determine whether compound 1 could effectively switch the splicing of VEGF in a model of diabetes we used the STZ model of diabetes in Norway Brown rats. Diabetic animals were treated with twice daily eye drops of compound 1 for four weeks and killed, and the retina dissected. Protein was extracted and subjected to immunoblotting for VEGF-A165b and panVEGF.

[2] = Non-human primate pharmacokinetic study (eye drops); type: in vivo, Cynomolgus monkeys
Procedure: Non-human primate pharmacokinetic study Cynomolgus monkeys were treated bidaily for 20 days with 35 μL eye drops of compound 1 at 0.5 mg/mL, 1.0 mg/mL or 1.5 mg/ml as indicated, in the eye drop formulation containing 7% poly-oxyl-40-stearate and 4% dextrose in PBS. Blood and aqueous samples were collected 1 h, 4 h, 8 h, 10 h and 14 h after eye drop administration on day 1 and at the end of the study. 1 h after the final eye drop on day 21, the animals were euthanised and ocular tissues and blood were collected. The retina was dissected from the choroid and sclera, incisions made, and laid out flat. Retina, RPE/choroid and sclera eye compartments were dissected into 7 different areas. All samples were weighed. Compound was extracted by reverse phase extraction from the retina and choroid/sclera samples and the plasma as above, and amount determined by mass spectrometry in different areas of the eye and in the blood. Amounts per milligram of tissue or nM for aqueous and blood were calculated for each sample, and averaged.
(§1) To determine whether compound 1 could penetrate into the retina of primates we dosed cynomologous monkeys with 0.5, 1.0 or 1.5 mg/mL compound 1 twice a day for 21 days. […] Aqueous taps and plasma samples were taken during the treatment and compound 1 measured in the fluid. […] To determine if these doses were sufficient to inhibit angiogenic VEGF-A isoform expression, retinal tissue was subjected to immunoblotting using pan-VEGF or VEGF-A165b antibodies.

pan-VEGF and VEGF-A165b = test: Non-human primate retinal VEGF immunoblotting; type: in vivo, Cynomolgus monkeys; conditions: monkey
Procedure: Retina sections sampled from half of the eye were homogenised in NP40 lysis buffer as described in Gammons et al., 2013. The extracts were then immunoblotted using either rabbit anti-panVEGF (Santa Cruz A20 sc-152; 1:500) or mouse anti-VEGFi65b (MAB3045; R&D; 1:500).
as §1

[3] = 3 weeks bidaily dosing, FIG. 10b

Papp at 24 h, 10 μg/mL [1]: 0.067 ×10⁻⁶ cm/s | half-life ([2]; cynomolgus, cynomolgus monkey, aqueous humour, topical or ocular, monkey, after administration of 1.5 mg/mL eye drop): 2 h | Concentrations in retina, choroid, vitreous and other tissues of the eye ([2]; monkey, 0.5, 1.0 or 1.5 mg/mL twice a day for 21 days): significant concentrations | melting point: 148 to 150 °C
Structure (SMILES): Cn1ccc(CN2CCN(c3ccc(C(F)(F)F)cc3NC(=O)c3ccc(C4CCOCC4)o3)CC2)n1 [Compound 1, N-(2-(4-((1-methyl-1H-pyrazol-3-yl)methyl)piperazin-1-yl)-5-(trifluoromethyl)phenyl)-5-(tetrahydro-2H-pyran-4-yl)furan-2-carboxamide]
Expression of pro-angiogenic VEGF-A165a isoform (VEGF-A165a isoform): reduces expression of the pro-angiogenic VEGF-A165a isoform in a dose dependent manner | Proportion of VEGF-A165b to total VEGF (VEGF-A165b and panVEGF): increased | Total VEGF in retina (VEGF-A165b and panVEGF): total VEGF is reduced | VEGF-A165b in retina (VEGF-A165b and panVEGF): VEGF-A165b is increased | Concentrations in aqueous taps and plasma samples ([2]; monkey, all three doses (0.5, 1.0, 1.5 mg/mL)): Significant concentrations were seen at all three doses | Total VEGF levels in retina (pan-VEGF and VEGF-A165b; [3]): total VEGF levels are decreased | VEGF-A165b levels in retina (pan-VEGF and VEGF-A165b; [3]): do not decrease and increase at 1 mg/ml | Ratio of angiogenic to anti-angiogenic VEGF-A in retina (pan-VEGF and VEGF-A165b; FIG. 10c): decreases

Reference: patent publication US12024504B2, “1-methyl-1H-pyrazol-3-yl derivatives for use in the treatment of neovascular diseases” (EXONATE LIMITED, priority 2021, dated 2024)
